Measured values from patent US9278968B2, “Imidazopyridine compounds” (ASTELLAS PHARMA INC., priority 2012, dated 2016).

Experiments:
[1] = target: human purified sGC (heterodimer of sGCα1 and sGCβ1) (Homo sapiens (Human), UniProt Q02108+Q02153); assay: sGC activation test (cGMP produced, HTRF); type: biochemical; settings: maximum activity of Preparation Example 200 compound (maximum 100 μM) taken as 100%; with SNP; read-out: EC50 (concentration giving 50% of maximum activity)
Outline: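 Human N-FLAG-sGCα1/sGCβ1 heterodimer was expressed in Sf9 cells via baculovirus and affinity-purified. Enzyme was incubated with compound, GTP, MgCl2, DTT and sodium nitroprusside in triethanolamine buffer for 1 h at room temperature, and cGMP was quantified by HTRF. EC50 is the concentration giving 50% of maximal activity set by a reference imidazopyridine activator (100%).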

[2] = test system: hind limb blood flow in rats anesthetized with pentobarbital; assay: Blood flow increasing action in vivo (hind limb blood flow, anesthetized rats); design: species or system Wistar male rats; settings: oral, 2 hours after administration, effective when blood flow rate 130% or more of solvent group
Procedure: The hind limb blood flow increasing action in rats anesthetized with pentobarbital was confirmed by the following test method.
Wistar male rats, 11- to 14-week (Japan SLC, Inc.) were used. An administration liquid was prepared by adding N,N-dimethyl formamide, Polyethylene Glycol 400, TWEEN 80, a 0.5% methyl cellulose aqueous solution, a 0.5 M aqueous sodium hydrogen carbonate solution, and 0.1 M hydrochloric acid to the test compound and dissolving the Example compound in an appropriate manner depending on the compound. The prepared administration liquid was orally administered, and 2 hours later, the hind limb blood flow increasing action was evaluated under anesthesia with intraperitoneally administration of 60 mg/kg of pentobarbital The hind limb blood flow was measured using a laser blood flow imaging device (PIM II Integral). By taking the average blood flow rate of a group with the administration of a solvent as 100%, the compound was evaluated to be effective when the blood flow rate was 130% or more by the administration of the compound.

[3] = test system: average blood pressure of rats; assay: Measurement of antihypertensive effect in vivo; design: species or system Wistar male rats; settings: oral
Procedure: As the animals, Wistar male rats, 13- to 18-week (Japan SLC, Inc.) were used. Three days prior to administration of a test compound, a cannula (PE-50, Becton, Dickinson and Company, Japan) filled with heparin physiological saline (200 U/mL, Ajinomoto Pharmaceuticals Co., Ltd.) was inserted and placed in the common carotid artery under anesthesia with intraperitoneal administration of 60 mg/kg of pentobarbital. The other end of the cannula was subcutaneously exposed to the back of the neck. After the recovery period, the placed cannula was connected to a pressure transducer (Life Kit DTS DX-100, Nihon Kohden Corporation) to record the blood pressure waveform through an amplifier (AP-641G, Nihon Kohden Co., Ltd.) and PowerLab (ML870 PowerLab8/30 (AD Instruments Japan)). The heart rate was calculated using a heart rate measuring unit (AT-601G, Nihon Kohden Co., Ltd.). After stabilization of the blood pressure, the test compound was orally administered one time to measure the blood pressure and the heart rate over time. The test compounds were administered by appropriately adding N,N-dimethylformamide, Polyethylene Glycol 400, TWEEN 80, a 0.5% aqueous methylcellulose solution, and a 0.5 M aqueous sodium hydrogen carbonate solution, and 0.1 M hydrochloric acid therein according to the compounds and dissolving it.
Further, the administration doses in Tables represent the administration doses for oral administration, and for example, 3 means 3 mg/kg. Further, the blood pressure reduction represents a maximum change value from the value before administration in the average blood pressure, and for example, −63 indicates reduction by 63 mmHg.

Sequence of human purified sGC (heterodimer of sGCα1 and sGCβ1) (Q02108 whole entry): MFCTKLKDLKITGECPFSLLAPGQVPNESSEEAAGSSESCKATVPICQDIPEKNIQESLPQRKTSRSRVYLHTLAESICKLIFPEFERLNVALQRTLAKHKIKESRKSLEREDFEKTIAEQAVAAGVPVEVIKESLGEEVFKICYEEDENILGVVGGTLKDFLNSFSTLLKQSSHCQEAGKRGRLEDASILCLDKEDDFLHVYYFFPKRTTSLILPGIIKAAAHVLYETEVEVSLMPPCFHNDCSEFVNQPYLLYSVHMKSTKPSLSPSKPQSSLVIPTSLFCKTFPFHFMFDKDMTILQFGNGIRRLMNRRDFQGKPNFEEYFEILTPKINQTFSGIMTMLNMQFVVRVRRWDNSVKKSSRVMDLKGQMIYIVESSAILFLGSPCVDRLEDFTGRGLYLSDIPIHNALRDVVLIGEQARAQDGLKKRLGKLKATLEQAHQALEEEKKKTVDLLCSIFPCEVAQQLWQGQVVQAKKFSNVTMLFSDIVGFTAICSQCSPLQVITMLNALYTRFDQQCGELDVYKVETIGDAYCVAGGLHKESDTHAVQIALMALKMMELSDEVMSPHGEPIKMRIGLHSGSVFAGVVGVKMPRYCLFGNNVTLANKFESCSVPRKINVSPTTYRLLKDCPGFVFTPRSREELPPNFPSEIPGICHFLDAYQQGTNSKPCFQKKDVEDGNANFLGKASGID
Sequence of human purified sGC (heterodimer of sGCα1 and sGCβ1) (Q02153 whole entry): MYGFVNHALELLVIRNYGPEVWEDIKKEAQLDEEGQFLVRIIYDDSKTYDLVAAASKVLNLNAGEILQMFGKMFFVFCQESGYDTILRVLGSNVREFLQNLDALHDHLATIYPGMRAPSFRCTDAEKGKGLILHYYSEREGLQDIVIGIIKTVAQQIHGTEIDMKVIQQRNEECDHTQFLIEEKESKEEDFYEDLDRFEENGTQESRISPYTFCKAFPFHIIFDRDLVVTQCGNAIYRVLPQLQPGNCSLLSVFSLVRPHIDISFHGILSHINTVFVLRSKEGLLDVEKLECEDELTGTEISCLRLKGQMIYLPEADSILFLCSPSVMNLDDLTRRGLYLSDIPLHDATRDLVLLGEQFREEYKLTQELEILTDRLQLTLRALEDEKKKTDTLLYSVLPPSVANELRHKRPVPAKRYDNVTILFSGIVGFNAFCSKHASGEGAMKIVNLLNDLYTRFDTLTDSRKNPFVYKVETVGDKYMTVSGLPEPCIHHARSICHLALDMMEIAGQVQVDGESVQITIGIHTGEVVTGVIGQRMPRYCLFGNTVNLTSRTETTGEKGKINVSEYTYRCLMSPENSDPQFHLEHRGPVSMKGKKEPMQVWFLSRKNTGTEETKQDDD

Structure (SMILES) | EC50 [1] [nM] | hind limb blood flow increasing action ([2]; 0.03 mg/kg) | Blood pressure reduction (maximum change from value before administration in average blood pressure) ([3]; single dose 0.3 mg/kg) [mmHg] | hind limb blood flow increasing action ([2]; 0.1 mg/kg) | Blood pressure reduction (maximum change from value before administration in average blood pressure) ([3]; single dose 1 mg/kg) [mmHg] | hind limb blood flow increasing action ([2]; 1 mg/kg) | Blood pressure reduction (maximum change from value before administration in average blood pressure) ([3]; single dose 3 mg/kg) [mmHg]
Cc1nc2c(OCc3c(F)cccc3F)cccn2c1C(=O)N[C@@](C)(CO)c1nnn(C(F)F)n1 [Example 114, 8-[(2,6-difluorobenzyl)oxy]-N-{(2R)-2-[2-(difluoromethyl)-2H-tetrazol-5-yl]-1-hydroxypropan-2-yl}-2-methylimidazo[1,2-a]pyridine-3-carboxamide] | 730 | exhibited a blood flow increasing action | −35 | – | – | – | –
Cc1nnc([C@](C)(CO)NC(=O)c2c(C)nc3c(OCc4c(F)cccc4F)cccn23)o1 [Example 117, 8-[(2,6-difluorobenzyl)oxy]-N-[(2S)-1-hydroxy-2-(5-methyl-1,3,4-oxadiazol-2-yl)propan-2-yl]-2-methylimidazo[1,2-a]pyridine-3-carboxamide] | 5500 | – | – | exhibited a blood flow increasing action | −35 | – | –
Cc1nnc([C@](C)(CO)NC(=O)c2c(C)nc3c(OCc4c(F)cccc4F)cccn23)s1 [Example 118, 8-[(2,6-difluorobenzyl)oxy]-N-[(2S)-1-hydroxy-2-(5-methyl-1,3,4-thiadiazol-2-yl)propan-2-yl]-2-methylimidazo[1,2-a]pyridine-3-carboxamide] | 1100 | – | – | – | – | exhibited a blood flow increasing action | −61
